# Results taken from patent US20130231346A1, “METHODS OF TREATING CANCER” (GLAXOSMITHKLINE INTELLECTUAL PROPERTY (NO.2) LIMITED, priority 2010, published 2013).
# Legend:
# Calu6 NSCLC cells = assay: Caspase 3/7 activation, Calu6; type: cell-based; parameters: key: −: lack of caspase 3/7 activation after 24 hours of compound treatment; ++: moderate; +++: strong; ++++: very strong; conditions: Calu6, KRAS^Q61K; BRG1 WT, LKB1 WT, CDKN2A WT; 24 hours
# Method: (§1) Inhibition of cell growth and induction of apoptosis were determined by CellTiter-Glo® and caspase 3/7 activation assays after 72 and 24 hours of treatment, respectively.
# H1155 NSCLC cells = assay: Caspase 3/7 activation, H1155; type: cell-based; parameters: key: −: lack of caspase 3/7 activation after 24 hours of compound treatment; ++: moderate; +++: strong; ++++: very strong; conditions: H1155, KRAS^Q61H; BRG1 WT, LKB1 WT, CDKN2A WT; 24 hours
# Method: (§2) A panel of 24 non-small cell lung carcinoma (NSCLC) cell lines harboring RAS mutations was analyzed for genomic alterations, gene expression profiling and protein phosphorylation in MAPK and PI3K pathways. Inhibition of cell growth and induction of apoptosis were determined by CellTiter-Glo® and caspase 3/7 activation assays after 72 and 24 hours of treatment, respectively.
# H2291 NSCLC cells = assay: Caspase 3/7 activation, H2291; type: cell-based; parameters: key: −: lack of caspase 3/7 activation after 24 hours of compound treatment; ++: moderate; +++: strong; ++++: very strong; conditions: H2291, KRAS^G12F; BRG1 WT, LKB1 WT, CDKN2A WT; 24 hours
# Method: as §1
# H358 NSCLC cells = assay: Caspase 3/7 activation, H358; type: cell-based; parameters: key: −: lack of caspase 3/7 activation after 24 hours of compound treatment; ++: moderate; +++: strong; ++++: very strong; conditions: H358, KRAS^G12c; BRG1 WT, LKB1 WT, CDKN2A WT; 24 hours
# Method: as §1
# H2122 NSCLC cells = assay: Caspase 3/7 activation, H2122; type: cell-based; parameters: key: −: lack of caspase 3/7 activation after 24 hours of compound treatment; ++: moderate; +++: strong; ++++: very strong; conditions: H2122, KRAS^G12c; BRG1 WT, LKB1 MUT, CDKN2A MUT; 24 hours
# Method: as §1
# H2009 NSCLC cells = assay: Caspase 3/7 activation, H2009; type: cell-based; parameters: key: −: lack of caspase 3/7 activation after 24 hours of compound treatment; ++: moderate; +++: strong; ++++: very strong; conditions: H2009, KRAS^G12A; BRG1 WT, LKB1 WT, CDKN2A WT; 24 hours
# Method: as §1
# H441 NSCLC cells = assay: Caspase 3/7 activation, H441; type: cell-based; parameters: key: −: lack of caspase 3/7 activation after 24 hours of compound treatment; ++: moderate; +++: strong; ++++: very strong; conditions: H441, KRAS^G12V; BRG1 WT, LKB1 WT, CDKN2A WT; 24 hours
# Method: as §1
# HOP62 NSCLC cells = assay: Caspase 3/7 activation, HOP62; type: cell-based; parameters: key: −: lack of caspase 3/7 activation after 24 hours of compound treatment; ++: moderate; +++: strong; ++++: very strong; conditions: HOP62, KRAS^G12c; BRG1 WT, LKB1 WT, CDKN2A MUT; 24 hours
# Method: as §2
# Calu1 NSCLC cells = assay: Caspase 3/7 activation, Calu1; type: cell-based; parameters: key: −: lack of caspase 3/7 activation after 24 hours of compound treatment; ++: moderate; +++: strong; ++++: very strong; conditions: Calu1, KRAS^G12c; BRG1 WT, LKB1 WT, CDKN2A WT; 24 hours
# Method: as §2
# [1] = system: RAS-mutant NSCLC cell lines; assay: Inhibition of cell growth (CellTiter-Glo) in panel of RAS-mutant NSCLC cell lines; conditions: Ras mut NSCLC cell lines; CellTiter-Glo, 72 hours of treatment
# Method: Cells are plated in 384-well plates at 500 cells/well in culture media appropriate for each cell type, supplemented with 10% FBS and 1% penicillin/streptomycin, and incubated overnight at 37° C., 5% CO2. Cells are treated in a grid manner with dilution of Compound A^2 (20 dilutions, including no compound, of 2-fold dilutions starting from 1-20 μM depending of compound) from left to right on 384-well plate and also treated with Compound B^2 (20 dilutions, including no compound, of 2-fold dilutions starting from 1-20 μM depending of compound) from top to bottom on 384-well plate and incubated as above for a further 72 hours. In some instances compounds are added in a staggered manner and incubation time can be extended up to 7 days. Cell growth is measured using CellTiter-Glo® reagent according to the manufacturer's protocol and signals are read on a PerkinElmer EnVision™ reader set for luminescence mode with a 0.5-second read.
# Results are expressed as a percentage of the t=0 value and plotted against compound(s) concentration. The t=0 value is normalized to 100% and represents the number of cells present at the time of compound addition. The cellular response is determined for each compound and/or compound combination using a 4- or 6-parameter curve fit of cell viability against concentration using the IDBS XLfit plug-in for Microsoft Excel software and determining the concentration required for 50% inhibition of cell growth (gIC50). Background correction is made by subtraction of values from wells containing no cells.
# as §2
# H1299 NSCLC cells = assay: Caspase 3/7 activation, H1299; type: cell-based; parameters: key: −: lack of caspase 3/7 activation after 24 hours of compound treatment; ++: moderate; +++: strong; ++++: very strong; conditions: H1299, KRAS^Q61H; BRG1 MUT, LKB1 WT, CDKN2A WT; 24 hours
# Method: as §1
# COR-L23 NSCLC cells = assay: Caspase 3/7 activation, COR-L23; type: cell-based; parameters: key: −: lack of caspase 3/7 activation after 24 hours of compound treatment; ++: moderate; +++: strong; ++++: very strong; conditions: COR-L23, KRAS^G12V; BRG1 WT, LKB1 WT, CDKN2A WT; 24 hours
# Method: as §2
# H2030 NSCLC cells = assay: Caspase 3/7 activation, H2030; type: cell-based; parameters: key: −: lack of caspase 3/7 activation after 24 hours of compound treatment; ++: moderate; +++: strong; ++++: very strong; conditions: H2030, KRAS^G12c; BRG1 MUT, LKB1 MUT, CDKN2A WT; 24 hours
# Method: as §1
# A427 NSCLC cells = assay: Caspase 3/7 activation, A427; type: cell-based; parameters: key: −: lack of caspase 3/7 activation after 24 hours of compound treatment; ++: moderate; +++: strong; ++++: very strong; conditions: A427, KRAS^G12D; BRG1 MUT, LKB1 MUT, CDKN2A WT; 24 hours
# Method: as §1
# H23 NSCLC cells = assay: Caspase 3/7 activation, H23; type: cell-based; parameters: key: −: lack of caspase 3/7 activation after 24 hours of compound treatment; ++: moderate; +++: strong; ++++: very strong; conditions: H23, KRAS^G12c; BRG1 MUT, LKB1 MUT, CDKN2A WT; 24 hours
# Method: as §1
# A549 NSCLC cells = assay: Caspase 3/7 activation, A549; type: cell-based; parameters: key: −: lack of caspase 3/7 activation after 24 hours of compound treatment; ++: moderate; +++: strong; ++++: very strong; conditions: A549, KRAS^G12S; BRG1 MUT, LKB1 MUT, CDKN2A MUT; 24 hours
# Method: as §1
# H1792 NSCLC cells = assay: Caspase 3/7 activation, H1792; type: cell-based; parameters: key: −: lack of caspase 3/7 activation after 24 hours of compound treatment; ++: moderate; +++: strong; ++++: very strong; conditions: H1792, KRAS^G12c; BRG1 WT, LKB1 WT, CDKN2A WT; 24 hours
# Method: as §1
# SW1573 NSCLC cells = assay: Caspase 3/7 activation, SW1573; type: cell-based; parameters: key: −: lack of caspase 3/7 activation after 24 hours of compound treatment; ++: moderate; +++: strong; ++++: very strong; conditions: SW1573, KRAS^G12C; BRG1 WT, LKB1 WT, CDKN2A MUT; 24 hours
# Method: as §2
# H1355 NSCLC cells = assay: Caspase 3/7 activation, H1355; type: cell-based; parameters: key: −: lack of caspase 3/7 activation after 24 hours of compound treatment; ++: moderate; +++: strong; ++++: very strong; conditions: H1355, KRAS^G13C; BRG1 NULL, LKB1 MUT, CDKN2A WT; 24 hours
# Method: as §2
Compound,Apoptosis Response (caspase 3/7 activation) (Calu6 NSCLC cells),Apoptosis Response (caspase 3/7 activation) (H1155 NSCLC cells),Apoptosis Response (caspase 3/7 activation) (H2291 NSCLC cells),Apoptosis Response (caspase 3/7 activation) (H358 NSCLC cells),Apoptosis Response (caspase 3/7 activation) (H2122 NSCLC cells),Apoptosis Response (caspase 3/7 activation) (H2009 NSCLC cells),Apoptosis Response (caspase 3/7 activation) (H441 NSCLC cells),Apoptosis Response (caspase 3/7 activation) (HOP62 NSCLC cells),Apoptosis Response (caspase 3/7 activation) (Calu1 NSCLC cells),"Response Rate (sensitivity/total lines tested), Cell growth inhibition [1]",Apoptosis Response (caspase 3/7 activation) (H1299 NSCLC cells),Apoptosis Response (caspase 3/7 activation) (COR-L23 NSCLC cells),Apoptosis Response (caspase 3/7 activation) (H2030 NSCLC cells),Apoptosis Response (caspase 3/7 activation) (A427 NSCLC cells),Apoptosis Response (caspase 3/7 activation) (H23 NSCLC cells),Apoptosis Response (caspase 3/7 activation) (A549 NSCLC cells),Apoptosis Response (caspase 3/7 activation) (H1792 NSCLC cells),Apoptosis Response (caspase 3/7 activation) (SW1573 NSCLC cells),Apoptosis Response (caspase 3/7 activation) (H1355 NSCLC cells)
"CC(=O)O[C@@]12CO[C@@H]1C[C@H](O)[C@@]1(C)C(=O)[C@H](O)C3=C(C)[C@@H](OC(=O)[C@H](O)[C@@H](NC(=O)OC(C)(C)C)c4ccccc4)C[C@@](O)([C@@H](OC(=O)c4ccccc4)[C@H]21)C3(C)C [Docataxel, (2R,3S)—N-carboxy-3-phenylisoserine,N-tert-butyl ester, 13-ester with 5β-20-epoxy-1,2α,4,7β,10β,13α-hexahydroxytax-11-en-9-one 4-acetate 2-benzoate, trihydrate]",++,−,−,++,−,−,−,++,−,88% (21/24),−,−,++,++,+++,−,+++,−,−
"CC(=O)Nc1cccc(-n2c(=O)n(C3CC3)c(=O)c3c(Nc4ccc(I)cc4F)n(C)c(=O)c(C)c32)c1 [Compound A, N-{3-[3-cyclopropyl-5-(2-fluoro-4-iodo-phenylamino)-6,8-dimethyl-2,4,7-trioxo-3,4,6,7-tetrahydro-2H-pyrido[4,3-d]pyrimidin-1-yl]phenyl}acetamide]",++,−,++,−,++,−,−,−,−,38% (9/24),−,−,−,−,−,−,++,−,−
